Test results taken from ChEMBL document CHEMBL4680085 (J Med Chem, 2016).
Active and inactive are the calls of the source. The rule behind the calls is not given here.

How the values were obtained:
SH-SY5Y [1] = experiment: Neuroprotection in human SH-SY5Y cells assessed as reduction in Rotenone/Oligomycin A -induced cell death at 1 uM incubated for 24 hrs by MTT assay; type: functional; design: scale not given: the % may be the effect or the level left
Acetylcholinesterase [2] = target: T1, Acetylcholinesterase (Homo sapiens, UniProt P22303); experiment: Potency index, ratio of IC50 for tacrine to IC50 for test compound for inhibition of AChE in human erythrocyte hemo-lyzates pre-incubated for 5 mins before addition of acetylthiocholine iodide substrate by Ellman's method; type: tissue-based
SH-SY5Y [3] = experiment: Neuroprotection in human SH-SY5Y cells assessed as reduction in beta-amyloid peptide (1-42)-induced cell death at 3 uM incubated for 24 hrs by MTT assay; type: functional; design: scale not given: the % may be the effect or the level left
Cholinesterase [4] = target: T2, Cholinesterase (Homo sapiens, UniProt P06276); experiment: Potency index, ratio of IC50 for tacrine to IC50 for test compound for inhibition of BuChE in human erythrocyte hemo-lyzates pre-incubated for 5 mins before addition of butyrylthiocholine iodide substrate by Ellman's method; type: tissue-based
Acetylcholinesterase [5] = target: Acetylcholinesterase (Electrophorus electricus, UniProt O42275); experiment: Inhibition of Electrophorus electricus AChE pre-incubated for 10 mins before addition of acetylthiocholine iodide substrate and further incubated for 15 mins by Ellman's method
in vitro [6] = details: human, HepG2 cells
Description: Toxicity in human HepG2 cells assessed as cell viability at 100 uM by MTT assay relative to control

SH-SY5Y [7] = experiment: Neuroprotection in human SH-SY5Y cells assessed as reduction in beta-amyloid peptide (1-42)-induced cell death at 1 uM incubated for 24 hrs by MTT assay; type: functional; design: scale not given: the % may be the effect or the level left
Acetylcholinesterase [8] = target: T1, Acetylcholinesterase; experiment: Inhibition of AChE in human erythrocyte hemo-lyzates pre-incubated for 5 mins before addition of acetylthiocholine iodide substrate by Ellman's method; type: tissue-based
[9] = Effective permeability at 100 uM after 3 to 6 hrs by PAMPA assay; type: ADME; details: time 3-6 hrs, read-out: Peff
in vitro [10] = details: human, HepG2 cells; remark: listed apart in the source
Description: Toxicity in human HepG2 cells assessed as cell viability at 300 uM by MTT assay relative to control

Cholinesterase [11] = target: Cholinesterase (Equus caballus, UniProt P81908)
Description: Inhibition of horse serum BuChE pre-incubated for 10 mins before addition of butyrylthiocholine iodide substrate and further incubated for 15 mins by Ellman's method

[12] = target: T3, Nuclear factor erythroid 2-related factor 2 (Homo sapiens) (UniProt Q16236); experiment: Activation of NRF2 in human MCF-7/AREc32 cells assessed as concentration required to double Nrf2 transcriptional pathway by measuring specific luciferase reporter activity incubated for 24 hrs by luciferase reporter gene assay; type: cell-based; details: MCF7, filed as activator
T3 sequence (whole entry): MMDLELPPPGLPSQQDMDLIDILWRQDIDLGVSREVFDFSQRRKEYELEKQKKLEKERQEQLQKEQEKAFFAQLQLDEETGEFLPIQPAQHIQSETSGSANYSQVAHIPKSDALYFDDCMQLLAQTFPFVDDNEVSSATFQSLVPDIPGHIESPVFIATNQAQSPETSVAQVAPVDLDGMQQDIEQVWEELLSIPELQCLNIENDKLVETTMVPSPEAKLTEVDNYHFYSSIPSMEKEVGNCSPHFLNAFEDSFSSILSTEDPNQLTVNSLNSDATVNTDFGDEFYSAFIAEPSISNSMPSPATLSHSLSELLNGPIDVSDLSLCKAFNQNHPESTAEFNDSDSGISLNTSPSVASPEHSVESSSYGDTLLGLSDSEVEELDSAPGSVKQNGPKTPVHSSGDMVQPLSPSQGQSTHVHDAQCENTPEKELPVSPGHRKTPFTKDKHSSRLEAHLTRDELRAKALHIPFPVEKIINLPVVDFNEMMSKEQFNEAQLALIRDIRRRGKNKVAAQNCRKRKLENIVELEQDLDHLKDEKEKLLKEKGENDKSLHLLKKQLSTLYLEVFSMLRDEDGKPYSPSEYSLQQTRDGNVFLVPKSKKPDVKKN

in vitro [13] = details: human, HepG2 cells; remark: listed apart in the source
Description: Toxicity in human HepG2 cells assessed as cell viability at 1000 uM by MTT assay relative to control

SH-SY5Y [14] = experiment: Neuroprotection in human SH-SY5Y cells assessed as reduction in beta-amyloid peptide (1-40)-induced cell death at 3 uM incubated for 24 hrs by MTT assay; type: functional; design: scale not given: the % may be the effect or the level left
Cholinesterase [15] = target: T2, Cholinesterase; experiment: Inhibition of BuChE in human erythrocyte hemo-lyzates pre-incubated for 5 mins before addition of butyrylthiocholine iodide substrate by Ellman's method; type: tissue-based
SH-SY5Y [16] = experiment: Neuroprotection in human SH-SY5Y cells assessed as reduction in H2O2-induced cell death at 3 uM incubated for 24 hrs by MTT assay; type: functional; design: scale not given: the % may be the effect or the level left
SH-SY5Y [17] = experiment: Neuroprotection in human SH-SY5Y cells assessed as reduction in beta-amyloid peptide (1-40)-induced cell death at 1 uM incubated for 24 hrs by MTT assay; type: functional; design: scale not given: the % may be the effect or the level left
SH-SY5Y [18] = experiment: Neuroprotection in human SH-SY5Y cells assessed as reduction in H2O2-induced cell death at 1 uM incubated for 24 hrs by MTT assay; type: functional; design: scale not given: the % may be the effect or the level left
SH-SY5Y [19] = experiment: Neuroprotection in human SH-SY5Y cells assessed as reduction in Rotenone/Oligomycin A -induced cell death at 3 uM incubated for 24 hrs by MTT assay; type: functional; design: scale not given: the % may be the effect or the level left
Cholinesterase [20] = target: T2, Cholinesterase; experiment: Competitive type inhibition of BuChE in human erythrocyte hemo-lyzates using […] substrate by Ellman's method based Lineweaver-Burk plot analysis; type: tissue-based
Acetylcholinesterase [21] = target: T1, Acetylcholinesterase; experiment: Mixed type inhibition of AChE in human erythrocyte hemo-lyzates using acetylthiocholine iodide substrate by Ellman's method based Lineweaver-Burk plot analysis; type: tissue-based
[22] = target: Cholinesterase (Equus caballus) (UniProt P81908); experiment: Potency index, ratio of IC50 for tacrine to IC50 for test compound for inhibition of horse serum BuChE
[23] = target: Acetylcholinesterase (Electrophorus electricus) (UniProt O42275); experiment: Potency index, ratio of IC50 for tacrine to IC50 for test compound for inhibition of Electrophorus electricus AChE
[24] = Ratio of antioxidant activity of melatonin to antioxidant activity of test compound assessed as AAPH radical scavenging activity incubated for 15 mins by ORAC-FL method relative to Trolox; type: functional
[25] = target: T3, Nuclear factor erythroid 2-related factor 2 (Homo sapiens); experiment: Activation of NRF2 in human MCF-7/AREc32 cells at 3 uM incubated for 24 hrs by luciferase reporter gene assay; type: cell-based; details: MCF7, filed as activator
[26] = target: T3, Nuclear factor erythroid 2-related factor 2 (Homo sapiens); experiment: Activation of NRF2 in human MCF-7/AREc32 cells at 10 to 30 uM incubated for 24 hrs by luciferase reporter gene assay; type: cell-based; details: MCF7, filed as activator, dose 10-30 µM
[27] = Ratio of antioxidant activity of FA to antioxidant activity of test compound assessed as AAPH radical scavenging activity incubated for 15 mins by ORAC-FL method relative to Trolox; type: functional
[28] = Ratio of antioxidant activity of LA to antioxidant activity of test compound assessed as AAPH radical scavenging activity incubated for 15 mins by ORAC-FL method relative to Trolox; type: functional
[29] = Antioxidant activity assessed as decrease in peak intensity of hydroxyl radicals at 100 uM by N-oxide self-spin assay relative to control; type: functional; design: scale not given: the % may be the effect or the level left

T1 sequence (P22303 whole entry): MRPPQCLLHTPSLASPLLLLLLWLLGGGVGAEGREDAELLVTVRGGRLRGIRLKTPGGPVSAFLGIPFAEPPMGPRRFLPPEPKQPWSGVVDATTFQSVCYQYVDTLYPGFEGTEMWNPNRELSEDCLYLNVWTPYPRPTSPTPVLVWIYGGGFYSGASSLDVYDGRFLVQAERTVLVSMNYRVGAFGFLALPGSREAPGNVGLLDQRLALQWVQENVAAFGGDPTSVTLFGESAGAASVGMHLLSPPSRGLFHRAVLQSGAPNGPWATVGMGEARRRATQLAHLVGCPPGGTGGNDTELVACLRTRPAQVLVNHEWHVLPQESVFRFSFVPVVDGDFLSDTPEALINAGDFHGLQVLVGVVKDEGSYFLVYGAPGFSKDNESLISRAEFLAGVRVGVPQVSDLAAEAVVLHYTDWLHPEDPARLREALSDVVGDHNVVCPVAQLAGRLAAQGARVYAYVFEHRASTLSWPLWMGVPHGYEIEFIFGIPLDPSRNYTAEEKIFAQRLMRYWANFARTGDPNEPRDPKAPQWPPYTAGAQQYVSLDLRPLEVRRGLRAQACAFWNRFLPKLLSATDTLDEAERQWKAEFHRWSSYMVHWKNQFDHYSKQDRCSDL
Cholinesterase (Equus caballus, UniProt P81908), sequence (P81908 whole entry): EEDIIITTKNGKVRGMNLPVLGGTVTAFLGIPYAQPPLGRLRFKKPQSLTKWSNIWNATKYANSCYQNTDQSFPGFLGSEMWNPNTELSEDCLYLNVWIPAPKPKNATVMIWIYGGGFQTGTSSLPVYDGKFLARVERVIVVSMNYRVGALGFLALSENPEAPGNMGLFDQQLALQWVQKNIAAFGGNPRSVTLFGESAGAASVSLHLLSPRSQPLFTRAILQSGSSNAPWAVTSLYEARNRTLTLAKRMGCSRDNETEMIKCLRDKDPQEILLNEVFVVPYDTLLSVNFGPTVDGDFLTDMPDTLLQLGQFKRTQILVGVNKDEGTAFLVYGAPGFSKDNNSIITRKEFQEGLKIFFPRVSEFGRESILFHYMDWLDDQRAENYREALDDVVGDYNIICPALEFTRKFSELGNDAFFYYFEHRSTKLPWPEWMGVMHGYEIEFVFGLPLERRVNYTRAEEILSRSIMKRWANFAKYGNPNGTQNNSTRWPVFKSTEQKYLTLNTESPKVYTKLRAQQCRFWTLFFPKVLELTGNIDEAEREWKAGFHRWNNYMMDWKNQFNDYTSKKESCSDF
T2 sequence (P06276 whole entry): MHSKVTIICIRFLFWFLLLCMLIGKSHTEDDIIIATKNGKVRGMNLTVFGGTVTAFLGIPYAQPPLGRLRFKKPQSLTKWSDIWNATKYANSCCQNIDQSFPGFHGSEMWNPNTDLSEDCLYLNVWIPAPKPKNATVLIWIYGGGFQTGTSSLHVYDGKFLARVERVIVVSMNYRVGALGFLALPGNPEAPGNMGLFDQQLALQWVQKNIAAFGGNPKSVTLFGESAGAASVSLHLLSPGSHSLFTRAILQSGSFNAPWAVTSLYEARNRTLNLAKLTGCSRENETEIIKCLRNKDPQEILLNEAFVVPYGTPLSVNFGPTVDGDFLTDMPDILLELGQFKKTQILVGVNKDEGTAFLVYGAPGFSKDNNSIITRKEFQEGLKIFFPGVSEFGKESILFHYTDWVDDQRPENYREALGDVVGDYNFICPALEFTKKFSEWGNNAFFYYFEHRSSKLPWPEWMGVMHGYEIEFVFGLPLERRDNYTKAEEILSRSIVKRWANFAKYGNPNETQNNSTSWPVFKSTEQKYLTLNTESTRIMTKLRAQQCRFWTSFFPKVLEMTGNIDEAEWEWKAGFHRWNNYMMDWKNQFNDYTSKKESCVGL
Acetylcholinesterase (Electrophorus electricus, UniProt O42275), sequence (O42275 whole entry): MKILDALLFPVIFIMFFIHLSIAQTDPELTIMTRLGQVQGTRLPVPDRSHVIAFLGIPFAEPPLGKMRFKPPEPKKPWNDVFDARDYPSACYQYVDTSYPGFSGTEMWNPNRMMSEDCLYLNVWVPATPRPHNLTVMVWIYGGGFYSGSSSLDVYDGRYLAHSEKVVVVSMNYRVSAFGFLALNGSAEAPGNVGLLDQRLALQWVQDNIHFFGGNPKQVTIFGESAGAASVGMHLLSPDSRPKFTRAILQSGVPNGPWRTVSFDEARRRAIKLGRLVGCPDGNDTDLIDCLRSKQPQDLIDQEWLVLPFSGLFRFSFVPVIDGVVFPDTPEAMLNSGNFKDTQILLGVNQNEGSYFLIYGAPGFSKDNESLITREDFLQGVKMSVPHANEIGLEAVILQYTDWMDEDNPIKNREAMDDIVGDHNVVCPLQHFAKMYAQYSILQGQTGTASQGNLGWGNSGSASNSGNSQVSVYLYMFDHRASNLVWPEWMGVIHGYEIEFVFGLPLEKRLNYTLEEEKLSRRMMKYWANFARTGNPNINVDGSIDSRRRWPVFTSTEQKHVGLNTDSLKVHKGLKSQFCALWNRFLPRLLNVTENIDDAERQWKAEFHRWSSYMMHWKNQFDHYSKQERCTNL
Cholinesterase (Equus caballus), sequence (P81908 whole entry): as the sequence (P81908 whole entry) above
Acetylcholinesterase (Electrophorus electricus), sequence (O42275 24-633 limits assumed): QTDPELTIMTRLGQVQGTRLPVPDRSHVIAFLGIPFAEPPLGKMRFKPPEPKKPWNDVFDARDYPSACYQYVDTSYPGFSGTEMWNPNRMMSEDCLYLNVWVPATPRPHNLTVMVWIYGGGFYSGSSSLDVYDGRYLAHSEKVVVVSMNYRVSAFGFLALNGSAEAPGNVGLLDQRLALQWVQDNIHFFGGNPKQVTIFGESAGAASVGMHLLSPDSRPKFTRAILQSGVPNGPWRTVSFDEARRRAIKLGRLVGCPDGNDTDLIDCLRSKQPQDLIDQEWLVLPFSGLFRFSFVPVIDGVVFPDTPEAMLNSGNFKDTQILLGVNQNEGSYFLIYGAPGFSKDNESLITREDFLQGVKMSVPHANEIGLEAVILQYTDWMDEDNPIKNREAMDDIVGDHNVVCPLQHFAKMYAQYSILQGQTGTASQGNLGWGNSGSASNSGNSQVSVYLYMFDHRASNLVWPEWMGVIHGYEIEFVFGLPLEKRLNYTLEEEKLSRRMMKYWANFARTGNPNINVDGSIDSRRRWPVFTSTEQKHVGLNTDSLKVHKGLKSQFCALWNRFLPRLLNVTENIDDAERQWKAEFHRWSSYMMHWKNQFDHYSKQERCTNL

SMILES | Activity (SH-SY5Y [1]) | Activity (SH-SY5Y [3]) | IC50 (Acetylcholinesterase [5]) | viability at 100 µM (in vitro [6]) | Activity (SH-SY5Y [7]) | IC50 (Acetylcholinesterase [8]) | Papp at 100 µM [9] | viability at 300 µM (in vitro [10]) | IC50 (Cholinesterase [11]) | CD [12] | viability at 1000 µM (in vitro [13]) | Activity (SH-SY5Y [14]) | IC50 (Cholinesterase [15]) | Activity (SH-SY5Y [16]) | Activity (SH-SY5Y [17]) | Activity (SH-SY5Y [18]) | Activity (SH-SY5Y [19]) | other results
COc1ccc2[nH]cc(CCNC(=O)CN(CCCCCCCCNc3c4c(nc5ccccc35)CCCC4)C(=O)/C=C/c3ccc(O)c(OC)c3)c2c1 | 44.8% | 5.3% | 13.9 nM | 53.3% | 34.5% | 43.7 nM | 5.8 ×10⁻⁶ cm/s | 51.3% | 2.26 nM | 15.7 µM | 49.7% | 66.3% | 23.5 nM | 51.3% | 21.5% | 35.4% | 59.4% | Ratio IC50 (Acetylcholinesterase [2]): 6.91; Ratio IC50 (Cholinesterase [4]): 6.91; inhibition (Cholinesterase [20]): Active; inhibition (Acetylcholinesterase [21]): Active
COc1ccc2nc3c(c(NCCCCCCN(CC(=O)NCCc4c[nH]c5ccc(OC)cc45)C(=O)/C=C/c4ccc(O)c(OC)c4)c2c1)CCCC3 | 39.2% | 50.2% | 17.8 nM | 70.3% | 85.1% | > 10000 nM | 2.2 ×10⁻⁶ cm/s | 67.6% | 2.97 nM | 10.9 µM | 56.5% | inactive | 358 nM | 42.8% | 12% | 22.9% | 29.2% | –
COc1ccc2nc3c(c(NCCCCCCCN(CC(=O)NCCc4c[nH]c5ccc(OC)cc45)C(=O)CCCC[C@@H]4CCSS4)c2c1)CCCC3 | – | – | 7.56 nM | 62.8% | – | > 10000 nM | – | 57.7% | 5.38 nM | – | 48.9% | – | 2650 nM | – | – | – | – | –
COc1ccc2[nH]cc(CCNC(=O)CN(CCCCCCCCNc3c4c(nc5ccccc35)CCCC4)C(=O)CCCC[C@@H]3CCSS3)c2c1 | – | – | 3.62 nM | 86.2% | – | 180 nM | 6.9 ×10⁻⁶ cm/s | 58.9% | 1.25 nM | – | 48.8% | – | 211 nM | – | – | – | – | Ratio IC50 [22]: 4; Ratio IC50 [23]: 12.2
COc1ccc2nc3c(c(NCCCCCCCN(CC(=O)NCCc4c[nH]c5ccc(OC)cc45)C(=O)/C=C/c4ccc(O)c(OC)c4)c2c1)CCCC3 | 33.7% | 57.4% | 8.37 nM | 84.7% | 81.4% | 1290 nM | 4.2 ×10⁻⁶ cm/s | 69.9% | 2.91 nM | 6.31 µM | 68.7% | 56.7% | 234 nM | 30.9% | 70.6% | 37.6% | 41.7% | Ratio [24]: 3.96; Activity [25]: Active; Activity [26]: Active; Ratio [27]: 2.43; Ratio [28]: 38; inhibition (Cholinesterase [20]): Active; inhibition (Acetylcholinesterase [21]): Active
COc1ccc2nc3c(c(NCCCCCCN(CC(=O)NCCc4c[nH]c5ccc(OC)cc45)C(=O)CCCC[C@@H]4CCSS4)c2c1)CCCC3 | – | – | 16 nM | 68.7% | – | > 10000 nM | – | 46.4% | 3.92 nM | – | 44.8% | – | 1880 nM | – | – | – | – | –
CC(C)(C)c1cc(O)ccc1O | – | – | – | – | – | – | – | – | – | 1.68 µM | – | – | – | – | – | – | – | Activity [25]: Active; Activity [26]: Active
COc1ccc2nc3c(c(NCCCCCCCCN(CC(=O)NCCc4c[nH]c5ccc(OC)cc45)C(=O)CCCC[C@@H]4CCSS4)c2c1)CCCC3 | – | – | 14.8 nM | 86.2% | – | > 10000 nM | – | 77.8% | 8.22 nM | – | 44.9% | – | 1730 nM | – | – | – | – | –
COC(=O)/C=C/c1ccc(O)c(OC)c1 | 23.8% | inactive | – | – | 40.7% | – | – | – | – | – | – | 53.9% | – | 56.9% | 27.8% | 51.1% | 21.3% | –
CC(=O)SCCC(=O)NCCCCCCNc1c2c(nc3cc(Cl)ccc13)CCCC2 | – | – | – | – | – | – | – | – | – | – | – | – | – | – | – | – | – | Activity [29]: 80.3%
COc1ccc2nc3c(c(NCCCCCCCCN(CC(=O)NCCc4c[nH]c5ccc(OC)cc45)C(=O)/C=C/c4ccc(O)c(OC)c4)c2c1)CCCC3 | 59.6% | 78.9% | 29.7 nM | 61% | 28% | > 10000 nM | 1.8 ×10⁻⁶ cm/s | 56% | 12 nM | 5.99 µM | 54.4% | 35.1% | 336 nM | inactive | 56.3% | 35.9% | 48% | Activity [25]: Active; Activity [26]: Active
